Results from ChEMBL document CHEMBL1828574, “Synthesis and structural studies of pentacycloundecane-based HIV-1 PR inhibitors: a hybrid 2D NMR and docking/QM/MM/MD approach” (Eur J Med Chem, 2011).
Where a SMILES comes first, the peptide text is derived from it. The star is where a group is joined. X1 = Oc1cccc(N*)c1

Key:
[1] = target: Human immunodeficiency virus type 1 protease (Human immunodeficiency virus 1, UniProt Q72874, Q7K); test: Inhibition of HIV1 subtype C protease Q7K mutant expressed in Escherichia coli BL21 (DE3) pLysS using Lys-Ala-Arg-Val-Nle-p-nitro-Phe-Glu-Ala-Nle-NH2 as substrate by spectrophotometry
MT4 = test: Cytotoxicity against human MT4 cells after 5 days by XTT assay; type: cell-based; details: MT4, 120 h
[2] = Solubility of the compound in aqueous buffer at pH 5; type: physicochemical
[3] = Ratio of cytotoxicity for Lopinavir to compound for human MT4 cells after 5 days by XTT assay; type: cell-based

CC[C@H](C)[C@H](NC(=O)[C@@H](N)CO)C(=O)N[C@@H](C)C(=O)N[C@@H](CCC(=O)O)C(=O)Nc1cccc(O)c1 (H-SIAE-X1)
IC50 [1]: 10 µM

CC[C@H](C)[C@H](NC(=O)[C@@H](N)CO)C(=O)N[C@@H](C)C(=O)N[C@@H](CCC(=O)O)C(=O)NC12NC(=O)C3(O)C4C5CC(C6C5C3C61)C42 (mixture of isomers)
IC50 [1]: 0.078 µM
IC50 (MT4): 218 µM
solubility [2]: soluble
selectivity ratio at 120 h [3]: 6000

CC[C@H](C)[C@H](NC(=O)[C@@H](N)CO)C(=O)N[C@@H](C)C(=O)N[C@@H](CCC(=O)O)C(=O)NC12NC(=O)C3(OC(C)=O)C4C5CC(C6C5C3C61)C42 (mixture of isomers)
IC50 [1]: > 10 µM
solubility [2]: soluble
selectivity ratio at 120 h [3]: 6000

CC[C@H](C)[C@H](N)C(=O)N[C@@H](C)C(=O)N[C@@H](CCC(=O)O)C(=O)NC12NC(=O)C3(O)C4C5CC(C6C5C3C61)C42 (mixture of isomers)
IC50 [1]: 0.5 µM
IC50 (MT4): 216 µM
solubility [2]: soluble
selectivity ratio at 120 h [3]: 6000

CC[C@H](C)[C@H](NC(=O)[C@@H](N)CO)C(=O)N[C@H](C(=O)N[C@@H](CCC(=O)O)C(=O)NC12NC(=O)C3(O)C4C5CC(C6C5C3C61)C42)C(C)C (mixture of isomers)
IC50 [1]: 2 µM
solubility [2]: soluble
selectivity ratio at 120 h [3]: 6000

CC[C@H](C)[C@H](NC(=O)[C@@H](N)CO)C(=O)N[C@@H](C)C(=O)N[C@@H](CCC(N)=O)C(=O)NC12NC(=O)C3(O)C4C5CC(C6C5C3C61)C42 (mixture of isomers)
IC50 [1]: 5 µM
solubility [2]: soluble
selectivity ratio at 120 h [3]: 6000

CC[C@H](C)[C@H](NC(=O)[C@@H](N)CO)C(=O)N[C@@H](C)C(=O)NC12NC(=O)C3(O)C4C5CC(C6C5C3C61)C42 (mixture of isomers; form 1)
IC50 [1]: 0.5 µM
IC50 (MT4): > 300 µM
solubility [2]: soluble
selectivity ratio at 120 h [3]: 6000

CC[C@H](C)[C@H](NC(=O)[C@@H](N)CO)C(=O)N[C@@H](C)C(=O)NC12NC(=O)C3(O)C4C5CC(C6C5C3C61)C42 (mixture of isomers; form 2)
IC50 [1]: 10 µM

COC(=O)N[C@H](C(=O)N[C@@H](Cc1ccccc1)[C@@H](O)CN(Cc1ccc(-c2ccccn2)cc1)NC(=O)[C@@H](NC(=O)OC)C(C)(C)C)C(C)(C)C [ATAZANAVIR]
IC50 [1]: 0.004 µM

Cc1cccc(C)c1OCC(=O)N[C@@H](Cc1ccccc1)[C@@H](O)C[C@H](Cc1ccccc1)NC(=O)[C@H](C(C)C)N1CCCNC1=O [LOPINAVIR]
IC50 (MT4): 0.035 µM
